# Assay results reported in patent US10829501B2 (BRISTOL-MYERS SQUIBB COMPANY, priority 2016, dated 2020).
# pIC50: −log10 of the molar value.
# Target: ROCK2 (Homo sapiens, UniProt O75116)
# Test: ROCK2 kinase inhibition assay (LABCHIP 3000 Reader, FITC peptide substrate);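 note: rho kinase reaction read by separating phosphorylated from unphosphorylated peptide on chip, with inhibition of kinase activity computed per concentration across a dose-response series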
# Conditions: not given
# ROCK2, sequence (O75116 whole entry, species assumed): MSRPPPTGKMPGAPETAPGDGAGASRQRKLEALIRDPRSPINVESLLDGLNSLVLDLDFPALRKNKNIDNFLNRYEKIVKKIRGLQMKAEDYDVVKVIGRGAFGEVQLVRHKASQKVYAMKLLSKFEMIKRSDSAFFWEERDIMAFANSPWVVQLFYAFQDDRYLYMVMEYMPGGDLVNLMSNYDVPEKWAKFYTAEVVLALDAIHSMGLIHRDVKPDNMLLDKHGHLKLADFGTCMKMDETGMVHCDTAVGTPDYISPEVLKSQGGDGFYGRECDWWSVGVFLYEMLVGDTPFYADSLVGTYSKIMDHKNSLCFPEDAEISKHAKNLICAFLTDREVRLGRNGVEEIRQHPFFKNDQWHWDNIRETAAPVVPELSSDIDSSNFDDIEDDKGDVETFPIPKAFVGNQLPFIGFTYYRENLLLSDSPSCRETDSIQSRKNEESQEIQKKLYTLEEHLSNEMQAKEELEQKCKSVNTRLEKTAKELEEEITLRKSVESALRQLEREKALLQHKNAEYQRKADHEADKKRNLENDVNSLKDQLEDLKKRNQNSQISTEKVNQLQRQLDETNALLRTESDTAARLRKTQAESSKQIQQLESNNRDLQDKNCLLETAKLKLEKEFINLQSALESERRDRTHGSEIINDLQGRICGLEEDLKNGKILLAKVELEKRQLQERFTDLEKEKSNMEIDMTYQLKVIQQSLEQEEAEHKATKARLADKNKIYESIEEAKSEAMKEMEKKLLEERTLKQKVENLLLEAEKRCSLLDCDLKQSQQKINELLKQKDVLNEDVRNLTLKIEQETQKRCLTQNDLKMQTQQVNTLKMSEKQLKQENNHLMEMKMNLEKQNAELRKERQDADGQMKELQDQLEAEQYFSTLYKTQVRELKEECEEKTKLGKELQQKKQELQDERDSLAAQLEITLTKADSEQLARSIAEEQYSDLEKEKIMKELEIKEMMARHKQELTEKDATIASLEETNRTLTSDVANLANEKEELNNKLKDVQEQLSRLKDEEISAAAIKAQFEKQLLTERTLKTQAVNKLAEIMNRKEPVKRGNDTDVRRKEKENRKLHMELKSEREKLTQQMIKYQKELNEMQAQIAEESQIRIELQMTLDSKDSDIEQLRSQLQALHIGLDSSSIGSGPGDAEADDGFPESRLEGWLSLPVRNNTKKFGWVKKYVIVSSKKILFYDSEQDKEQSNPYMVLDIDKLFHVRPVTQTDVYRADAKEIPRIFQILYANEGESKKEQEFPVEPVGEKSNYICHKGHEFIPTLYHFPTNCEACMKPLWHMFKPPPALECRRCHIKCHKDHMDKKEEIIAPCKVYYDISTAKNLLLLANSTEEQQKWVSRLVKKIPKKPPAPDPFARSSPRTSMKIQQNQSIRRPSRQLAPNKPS
row,pIC50,Structure (SMILES)
1,> 8.30,"Cc1ncc(-c2ccc3c(C(=O)NC4CC5(C4)CC(Oc4ncccc4C(N)=O)C5)nc(C(F)F)n3c2)s1 [Example 436, N-((aR)-6-((3-carbamoylpyridin-2-yl)oxy)spiro[3.3]heptan-2-yl)-3-(difluoromethyl)-6-(2-methylthiazol-5-yl)imidazo[1,5-a]pyridine-1-carboxamide]"
2,7.30 to 8.30,"Cn1cc(-c2ccc3c(C(=O)NC4CC5(C4)CC(Oc4ncccc4C(N)=O)C5)nc(C(F)F)n3c2)c(C(F)(F)F)n1 [Example 438, N-((aR)-6-((3-carbamoylpyridin-2-yl)oxy)spiro[3.3]heptan-2-yl)-3-(difluoromethyl)-6-(1-methyl-3-(trifluoromethyl)-1H-pyrazol-4-yl)imidazo[1,5-a]pyridine-1-carboxamide]"

# Same assay, conditions: read-out: ROCK2 Activity (ROCK2 IC50); 5 μM ATP, 1.5 μM peptide substrate, pH 7.5
row,pIC50,Structure (SMILES)
1,7.30 to 8.30,"NC(=O)c1cccnc1OC1CC2(CC(NC(=O)c3nc(C(F)(F)F)n4cc(Br)ccc34)C2)C1 [Example 429, 6-bromo-N-((aR)-6-((3-carbamoylpyridin-2-yl)oxy)spiro[3.3]heptan-2-yl)-3-(trifluoromethyl)imidazo[1,5-a]pyridine-1-carboxamide]"
2,7.30 to 8.30,"NC(=O)c1cccnc1OC1CC2(CC(NC(=O)c3nc(C(F)(F)F)n4ccccc34)C2)C1 [Example 430, N-((aR)-6-((3-carbamoylpyridin-2-yl)oxy)spiro[3.3]heptan-2-yl)-3-(trifluoromethyl)imidazo[1,5-a]pyridine-1-carboxamide]"
3,7.30 to 8.30,"NC(=O)c1cccnc1OC1CC2(CC(NC(=O)c3nc(C(F)(F)F)n4cc(OCc5ccccc5)ccc34)C2)C1 [Example 431, 6-(benzyloxy)-N-((aR)-6-((3-carbamoylpyridin-2-yl)oxy)spiro[3.3]heptan-2-yl)-3-(trifluoromethyl)imidazo[1,5-a]pyridine-1-carboxamide]"
4,7.30 to 8.30,"NC(=O)c1cccnc1OC1CC2(CC(NC(=O)c3nc(C(F)(F)F)n4cc(OS(=O)(=O)C(F)(F)F)ccc34)C2)C1 [Example 432, 1-(((aR)-6-((3-carbamoylpyridin-2-yl)oxy)spiro[3.3]heptan-2-yl)carbamoyl)-3-(trifluoromethyl)imidazo[1,5-a]pyridin-6-yl Trifluoromethanesulfonate]"
5,> 8.30,"Cn1cc(-c2ccc3c(C(=O)NC4CC5(C4)CC(Oc4ncccc4C(N)=O)C5)nc(C(F)(F)F)n3c2)cn1 [Example 433, N-((aR)-6-((3-carbamoylpyridin-2-yl)oxy)spiro[3.3]heptan-2-yl)-6-(1-methyl-1H-pyrazol-4-yl)-3-(trifluoromethyl)imidazo[1,5-a]pyridine-1-carboxamide]"
6,7.30 to 8.30,"CC(C)(O)COc1ccc2c(C(=O)NC3CC4(C3)CC(Oc3ncccc3C(N)=O)C4)nc(C(F)(F)F)n2c1 [Example 434, N-((aR)-6-((3-carbamoylpyridin-2-yl)oxy)spiro[3.3]heptan-2-yl)-6-(2-hydroxy-2-methylpropoxy)-3-(trifluoromethyl)imidazo[1,5-a]pyridine-1-carboxamide]"
7,> 8.30,"NC(=O)c1cccnc1OC1CC2(CC(NC(=O)c3nc(C(F)F)n4cc(OCc5ccccc5)ccc34)C2)C1 [Example 435, 6-(benzyloxy)-N-((aR)-6-((3-carbamoylpyridin-2-yl)oxy)spiro[3.3]heptan-2-yl)-3-(difluoromethyl)imidazo[1,5-a]pyridine-1-carboxamide]"
8,7.30 to 8.30,"Cn1cncc1-c1ccc2c(C(=O)NC3CC4(C3)CC(Oc3ncccc3C(N)=O)C4)nc(C(F)F)n2c1 [Example 437, N-((aR)-6-((3-carbamoylpyridin-2-yl)oxy)spiro[3.3]heptan-2-yl)-3-(difluoromethyl)-6-(1-methyl-1H-imidazol-5-yl)imidazo[1,5-a]pyridine-1-carboxamide]"
9,> 8.30,"Cn1cc(-c2ccc3c(C(=O)NC4CC5(C4)CC(Oc4ncccc4C(N)=O)C5)nc(C(F)F)n3c2)cn1 [Example 439, N-((aR)-6-((3-carbamoylpyridin-2-yl)oxy)spiro[3.3]heptan-2-yl)-3-(difluoromethyl)-6-(1-methyl-1H-pyrazol-4-yl)imidazo[1,5-a]pyridine-1-carboxamide]"
10,> 8.30,"NC(=O)c1cccnc1OC1CC2(CC(NC(=O)c3nc(C(F)F)n4cc(N5CCOCC5)ccc34)C2)C1 [Example 440, N-((aR)-6-((3-carbamoylpyridin-2-yl)oxy)spiro[3.3]heptan-2-yl)-3-(difluoromethyl)-6-morpholinoimidazo[1,5-a]pyridine-1-carboxamide]"
11,5.60 to 6.60,"CC(C)(O)CNc1ccc2c(C(=O)NC3CC4(C3)CC(Oc3ncccc3C(N)=O)C4)nc(C(F)F)n2c1 [Example 442, N-((aR)-6-((3-carbamoylpyridin-2-yl)oxy)spiro[3.3]heptan-2-yl)-3-(difluoromethyl)-6-((2-hydroxy-2-methylpropyl)amino)imidazo[1,5-a]pyridine-1-carboxamide]"
12,5.60 to 6.60,"CC(C)(CN)Oc1ccc2c(C(=O)NC3CC4(C3)CC(Oc3ncccc3C(N)=O)C4)nc(C(F)F)n2c1 [Example 443, 6-((1-amino-2-methylpropan-2-yl)oxy)-N-((aR)-6-((3-carbamoylpyridin-2-yl)oxy)spiro[3.3]heptan-2-yl)-3-(difluoromethyl)imidazo[1,5-a]pyridine-1-carboxamide]"
13,> 8.30,"C[C@@H]1CN(c2ccc3c(C(=O)NC4CC5(C4)CC(Oc4ncccc4C(N)=O)C5)nc(C(F)F)n3c2)C[C@H](C)O1 (stereo partly drawn) [Example 444, N-((aR)-6-((3-carbamoylpyridin-2-yl)oxy)spiro[3.3]heptan-2-yl)-3-(difluoromethyl)-6-((2S,6R)-2,6-dimethylmorpholino)imidazo[1,5-a]pyridine-1-carboxamide]"
14,> 8.30,"Cc1nn(C)cc1-c1ccc2c(C(=O)NC3CC4(C3)CC(Oc3ncccc3C(N)=O)C4)nc(C(F)F)n2c1 [Example 445, N-((aR)-6-((3-carbamoylpyridin-2-yl)oxy)spiro[3.3]heptan-2-yl)-3-(difluoromethyl)-6-(1,3-dimethyl-1H-pyrazol-4-yl)imidazo[1,5-a]pyridine-1-carboxamide]"
15,> 8.30,"Cc1ncc(-c2cc(C(=O)NC3CC4(C3)CC(Oc3ncccc3C(N)=O)C4)cc(C(F)(F)F)c2)s1 [Example 446, 2-(((aR)-6-(3-(2-methylthiazol-5-yl)-5-(trifluoromethyl)benzamido)spiro[3.3]heptan-2-yl)oxy)nicotinamide]"
16,7.30 to 8.30,"Cn1cc(-c2cc(C(=O)NC3CC4(C3)CC(Oc3ncccc3C(N)=O)C4)cc(C(F)(F)F)c2)c(C(F)(F)F)n1 [Example 447, 2-(((aR)-6-(3-(1-methyl-3-(trifluoromethyl)-1H-pyrazol-4-yl)-5-(trifluoromethyl)benzamido)spiro[3.3]heptan-2-yl)oxy)nicotinamide]"
17,> 8.30,"Cc1nn(C)cc1-c1cc(C(=O)NC2CC3(C2)CC(Oc2ncccc2C(N)=O)C3)cc(C(F)(F)F)c1 [Example 448, 2-(((aR)-6-(3-(1,3-dimethyl-1H-pyrazol-4-yl)-5-(trifluoromethyl)benzamido)spiro[3.3]heptan-2-yl)oxy)nicotinamide]"
18,7.30 to 8.30,"Cn1cncc1-c1cc(C(=O)NC2CC3(C2)CC(Oc2ncccc2C(N)=O)C3)cc(C(F)(F)F)c1 [Example 449, 2-(((aR)-6-(3-(1-methyl-1H-imidazol-5-yl)-5-(trifluoromethyl)benzamido)spiro[3.3]heptan-2-yl)oxy)nicotinamide]"
19,7.30 to 8.30,"CC1(O)CCN(c2cc(C(=O)NC3CC4(C3)CC(Oc3ncccc3C(N)=O)C4)cc(C(F)(F)F)c2)CC1 [Example 450, 2-(((aR)-6-(3-(4-hydroxy-4-methylpiperidin-1-yl)-5-(trifluoromethyl)benzamido)spiro[3.3]heptan-2-yl)oxy)nicotinamide]"
20,7.30 to 8.30,"NC(=O)c1cccnc1OC1CC2(CC(NC(=O)c3nc(C(F)F)n4cc(N5CCOC(CCO)C5)ccc34)C2)C1 [Example 451, N-((aR)-6-((3-carbamoylpyridin-2-yl)oxy)spiro[3.3]heptan-2-yl)-3-(difluoromethyl)-6-(2-(2-hydroxyethyl)morpholino)imidazo[1,5-a]pyridine-1-carboxamide]"
21,7.30 to 8.30,"NC(=O)c1cccnc1OC1CC2(CC(NC(=O)c3cc(N4CC5CC4CO5)cc(C(F)(F)F)c3)C2)C1 [Example 452, 2-(((aR)-6-(3-(2-oxa-5-azabicyclo[2.2.1]heptan-5-yl)-5-(trifluoromethyl)benzamido)spiro[3.3]heptan-2-yl)oxy)nicotinamide]"
22,7.30 to 8.30,"CC(=O)N(C)Cc1ccc2c(C(=O)NC3CC4(C3)CC(Oc3ncccc3C(N)=O)C4)nc(C(F)F)n2c1 [Example 453, N-((aR)-6-((3-carbamoylpyridin-2-yl)oxy)spiro[3.3]heptan-2-yl)-3-(difluoromethyl)-6-((N-methylacetamido)methyl)imidazo[1,5-a]pyridine-1-carboxamide]"
23,> 8.30,"Cc1c(-c2cc(C(=O)NC3CC4(C3)CC(Oc3ncccc3C(N)=O)C4)cc(C(F)(F)F)c2)cnn1C [Example 454, 2-(((aR)-6-(3-(1,5-dimethyl-1H-pyrazol-4-yl)-5-(trifluoromethyl)benzamido)spiro[3.3]heptan-2-yl)oxy)nicotinamide]"
24,7.30 to 8.30,"NC(=O)c1cccnc1OC1CC2(CC(NC(=O)c3nc(C(F)F)n4cc(N5CCN[C@H](CO)C5)ccc34)C2)C1 (stereo partly drawn) [Example 455, N-((aR)-6-((3-carbamoylpyridin-2-yl)oxy)spiro[3.3]heptan-2-yl)-3-(difluoromethyl)-6-((S)-3-(hydroxymethyl)piperazin-1-yl)imidazo[1,5-a]pyridine-1-carboxamide]"
25,> 8.30,"NC(=O)c1cccnc1OC1CC2(CC(NC(=O)c3cc(N4CC5CCC(C4)O5)cc(C(F)(F)F)c3)C2)C1 [Example 456, 2-(((aR)-6-(3-(8-oxa-3-azabicyclo[3.2.1]octan-3-yl)-5-(trifluoromethyl)benzamido)spiro[3.3]heptan-2-yl)oxy)nicotinamide]"

row,Structure (SMILES),pIC50
1,"CC(C)(O)CCOc1ccc2c(C(=O)NC3CC4(C3)CC(Oc3ncccc3C(N)=O)C4)nc(C(F)F)n2c1 [Example 441, N-((aR)-6-((3-carbamoylpyridin-2-yl)oxy)spiro[3.3]heptan-2-yl)-3-(difluoromethyl)-6-(3-hydroxy-3-methylbutoxy)imidazo[1,5-a]pyridine-1-carboxamide]",> 8.30
